Measurements from patent US20250333709A1, “BRAIN ENDOTHELIAL CELLS AND METHODS OF MAKING” (President and Fellows of Harvard College, priority 2022, published 2025).
Where two headings read alike, the source gives them in different places.

B1: ciliary neurotrophic factor (protein, UniProt P26441 1-200, looked up)
Ciliary neurotrophic factor: MAFTEHSPLTPHRRDLCSRSIWLARKIRSDLTALTESYVKHQGLNKNINLDSADGMPVASTDQWSELTEAERLQENLQAYRTFHVLLARLLEDQQVHFTPTEGDFHQAIHTLLLQVAAFAYQIEELMILLEYKIPRNEADGMPINVGDGGLFEKKLWGLKVLQELSQWTVRSIHDLRFISSHQTGIPARGSHYIANNKKM
notes: Human recombinant ciliary neurotrophic factor, 20 ng/ml
B2: WNT3A: Wnt ligand used at 100 ng/ml to activate Wnt signaling in iPSC-ECs (protein, UniProt P56704 19-352, looked up)
Protein Wnt-3a: SYPIWWSLAVGPQYSSLGSQPILCASIPGLVPKQLRFCRNYVEIMPSVAEGIKIGIQECQHQFRGRRWNCTTVHDSLAIFGPVLDKATRESAFVHAIASAGVAFAVTRSCAEGTAAICGCSSRHQGSPGKGWKWGGCSEDIEFGGMVSREFADARENRPDARSAMNRHNNEAGRQAIASHMHLKCKCHGLSGSCEVKTCWWSQPDFRAIGDFLKDKYDSASEMVVEKHRESRGWVETLRPRYTYFKVPTERDLVYYEASPNFCEPNPETGSFGTRDRTCNVSSHGIDGCDLLCCGRGHNARAERRREKCRCVFHWCCYVSCQECTRVYDVHTCK

What was measured:
iPSC-ECs [1] = assay: mRNA levels of brain EC genes in iPSC-ECs with HDAC inhibitor, Wnt pathway activator and PKC activator; type: cell-based, human; conditions: 48 hours, presence and absence of quisinostat 10 nM, Chir99021 5 uM, WNT3A 100 ng/ml, IndoV 100 nM, PMA 100 nM, FIG. 5C
Experimental: FIGS. 5A-5C show overexpression of brain EC-specific transcription factors and inhibition of HDAC induce a subset of brain EC-enriched genes. […] Chir99021, 5 uM; WNT3A, 100 ng/ml; IndoV, 100 nM; PMA, 100 nM, Q, quisinostate 10 nM; 48 hours. *, P<0.05 vs. Control; **, P<0.01 vs. Control.

iPSC-ECs [2] = assay: GLUT1 and PLVAP expression in iPSC-ECs after Wnt signaling activation (immunostaining, mRNA); type: cell-based, human; conditions: vs. EGM2, FIG. 2A-2C
Description: CTNNB1::GFP iPSC line (Allen Cell, AICS-0058-067iPSC) was used to visualize subcellular localization of beta-catenin protein. *, P<0.05 vs. EGM2; **, P<0.01 vs. EGM2. Scale bars, 100 um.

iPSC-ECs [3] = conditions: 10 uM for 2 days, FIG. 4A, 4C
Experimental: Representative immunostaining images of iPSC-ECs after treatment with TGFBR1 inhibitor RepSox (10 uM, FIG. 4A) and human recombinant TGF beta (FIG. 4B). […] All compounds were treated at 10 uM concentrations for 2 days. […] Scale bars, 100 um.

iPSC-ECs [4] = assay: Brain EC gene regulation in iPSC-ECs exposed to a combination of WNT3A, CNTF and RepSox; type: cell-based, human; conditions: FIG. 4D
iPSC-ECs [5] = assay: CLDN5 expression in CNTF-treated iPSC-ECs (immunostaining); type: cell-based, human; conditions: CNTF 20 ng/ml, CNTFRa 100 ng/ml, FIG. 3
Experimental: FIG. 3A illustrates iPSC-ECs exposed to either fresh astrocyte medium (AM) or astrocyte-conditioned medium (ACM). Conditioned medium was collected for 48 hours. Both AM and ACM were treated as 1:1 mixture with EC medium (EGM2). […] Human recombinant ciliary neurotrophic factor (CNTF), 20 ng/ml; human recombinant CNTF receptor alpha (CNTFRa), 100 ng/ml. […] PM and PCM were treated as 1:1 mixture with EGM2 for 2 days. […] Scale bars, 100 um.

| Molecule | expression of ABCB1 (mRNA) (iPSC-ECs [1]) | expression of MFSD2A (mRNA) (iPSC-ECs [1]) | GLUT1 expression (iPSC-ECs [2]) | PLVAP expression (iPSC-ECs [2]) | CLDN5 expression (iPSC-ECs [3]) | effect on brain EC gene regulation (iPSC-ECs [4]) | CLDN5 expression (iPSC-ECs [5]) |
| --- | --- | --- | --- | --- | --- | --- | --- |
| CCCCCCCCCCCCCC(=O)O[C@@H]1[C@@H](C)[C@@]2(O)[C@@H](C=C(CO)C[C@]3(O)C(=O)C(C)=C[C@@H]23)[C@@H]2C(C)(C)[C@]12OC(C)=O [PMA] | induce | induce |  |  |  |  |  |
| CC(C)[C@H]1C(=O)N[C@H](CO)Cc2c[nH]c3cccc(c23)N1C [IndoV] | induce | induce |  |  |  |  |  |
| Cc1c[nH]c(-c2cnc(NCCNc3ccc(C#N)cn3)nc2-c2ccc(Cl)cc2Cl)n1 [Chir99021] | induce | induce | upregulates | downregulates |  |  |  |
| Cc1cccc(-c2[nH]ncc2-c2ccc3ncccc3n2)n1 [RepSox] |  |  |  |  | increase | additive effect |  |
| B1 |  |  |  |  |  | additive effect | increases |
| B2 | induce | induce | upregulates | downregulates |  | additive effect |  |
